Results: ChEMBL document CHEMBL3045085, “Structureactivity relationship study of growth inhibitory 2-styrylchromones against carcinoma cells” (2013)

Tests used:
Type in all cases: functional
[1] = Growth inhibition of Homo sapiens (human) H460 cells after 48 hr by MTT assay; details: NCI-H460, 48 h
AGS = experiment: Growth inhibition of Homo sapiens (human) AGS cells after 48 hr by MTT assay
HeLa = experiment: Growth inhibition of Homo sapiens (human) HeLa cells after 48 hr by MTT assay
OVCAR = experiment: Growth inhibition of Homo sapiens (human) OVCAR cells after 48 hr by MTT assay
[2] = Growth inhibition of Homo sapiens (human) SKHep cells after 48 hr by MTT assay
PC-3 = experiment: Growth inhibition of Homo sapiens (human) PC3 cells after 48 hr by MTT assay; details: PC-3, 48 h
SW-620 = experiment: Growth inhibition of Homo sapiens (human) SW620 cells after 48 hr by MTT assay; details: SW-620, 48 h

GI50 (AGS) [µM]	GI50 (HeLa) [µM]	GI50 (OVCAR) [µM]	GI50 (PC-3) [nM]	GI50 (SW-620) [nM]	Compound	GI50 [1] [µM]	GI50 [2] [µM]
> 40	14	> 40	–	–	O=c1cc(/C=C/c2ccc3c(c2)OCO3)oc2ccccc12	> 40	> 40
> 40	25	21	–	–	O=c1cc(/C=C/c2ccccc2)oc2ccccc12	> 40	> 40
0.02	0.33	0.95	1760	30	COc1cccc2c1C(=O)c1c(O)c3c(c(O)c1C2=O)C[C@@](O)(C(=O)CO)C[C@@H]3O[C@H]1C[C@H](N)[C@H](O)[C@H](C)O1 [DOXORUBICIN]	0.11	0.09
